Starred links: 1 amine or outer side, 2 acyl side, 3 side chain; linkers in the order of their positions; H or OH if unused. Positions of bridges follow the written chain, without caps; N, C: chain ends. Non-standard residues stand in square brackets, D forms with d. Residues, ends and D or L forms follow the SMILES beside them. Groups on a side chain read outwards from the residue. *: point of attachment. X7 = O=C(O)CN1CCN(CC(=O)O)CCN(CC(=O)NCCOCCOCCOCCOCCOCCOCCOCCOCC(=O)*)CCN(CC(=O)O)CC1; X16 = O=C(O)CCOCCOCCOCCOCCOCCOCCOCCOCCOCCOCCOCCOCCOCCOCCOCCOCCOCCOCCOCCOCCOCCC(=O)*; Ala(piperidin-4-yl) = O=C([C@H](CC1CCN([*:3])CC1)N[*:1])[*:2]; DOTA = O=C(O)CN1CCN(CC(=O)O)CCN(CC(=O)*)CCN(CC(=O)O)CC1; Trp(5-F) = N[C@@H](Cc1c[nH]c2ccc(F)cc12)C(=O)O; Trp(7-aza) = N[C@@H](Cc1c[nH]c2ncccc12)C(=O)O; X1 = C[C@@H](c1ccccc1)[C@H](N[*:1])C(=O)[*:2]; 1Nal = N[C@@H](Cc1cccc2ccccc12)C(=O)O; Ala(4-THP) = N[C@@H](CC1CCOCC1)C(=O)O; Val(3-OH) = CC(C)(O)[C@H](N)C(=O)O; 4Pal = N[C@@H](Cc1ccncc1)C(=O)O; Aad = N[C@@H](CCCC(=O)O)C(=O)O; Cha = N[C@@H](CC1CCCCC1)C(=O)O; PEG4 = NCCOCCOCCOCCOCCC(=O)O; Tle = CC(C)(C)[C@H](N)C(=O)O; hLeu = CC(C)CC[C@H](N)C(=O)O; NMeS = CN[C@@H](CO)C(=O)O; Nle = CCCC[C@H](N)C(=O)O; βAla = NCCC(=O)O
Target: T1, human 4lg B7-H3 (Homo sapiens, UniProt Q5ZPR3)
T1 sequence (Q5ZPR3 29-534): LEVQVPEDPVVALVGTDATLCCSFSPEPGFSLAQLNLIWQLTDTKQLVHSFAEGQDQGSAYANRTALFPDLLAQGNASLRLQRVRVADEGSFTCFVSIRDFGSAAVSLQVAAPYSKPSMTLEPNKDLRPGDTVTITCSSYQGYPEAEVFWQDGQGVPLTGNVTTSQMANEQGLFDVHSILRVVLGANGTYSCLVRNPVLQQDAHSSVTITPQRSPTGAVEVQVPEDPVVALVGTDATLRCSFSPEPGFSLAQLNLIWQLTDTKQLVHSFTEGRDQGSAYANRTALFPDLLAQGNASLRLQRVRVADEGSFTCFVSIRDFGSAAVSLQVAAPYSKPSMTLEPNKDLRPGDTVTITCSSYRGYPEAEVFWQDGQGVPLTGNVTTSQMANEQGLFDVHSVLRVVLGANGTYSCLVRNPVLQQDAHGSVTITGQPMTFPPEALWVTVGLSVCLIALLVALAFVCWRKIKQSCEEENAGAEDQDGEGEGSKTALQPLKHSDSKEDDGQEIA
Test: Affinity determination by surface plasmon resonance (SPR) to 4Ig B7-H3
Settings: SPR KD—25° C., 4Ig B7-H3; 25° C. flow cell temperature

| Compound | Kd |
| --- | --- |
| CCCC[C@H](NC(C)=O)C(=O)N[C@@H](Cc1ccc(O)cc1)C(=O)N[C@H]1CSSC[C@@H](C(=O)N[C@@H](Cc2c[nH]c3ncccc23)C(=O)N[C@@H](Cc2ccccc2)C(=O)N[C@H](C(=O)N[C@H](CCCCNC(=O)CN2CCN(CC(=O)O)CCN(CC(=O)O)CCN(CC(=O)O)CC2)C(N)=O)[C@@H](C)O)NC(=O)[C@H](Cc2ccc(O)cc2)NC(=O)[C@H](C(C)C)NC(=O)[C@H](CC(=O)O)NC(=O)[C@H](Cc2ccc(O)cc2)NC(=O)[C@H](CCCCN)NC(=O)CNC(=O)[C@H](C(C)C)NC1=O [compound 134, Ac-Nle-Y-C-V-G-K-Y-D-V-Y-C-7NW-F-Thr-dLys(DOTA)-CONH2] (Ac-[Nle]YCVGKYDVYC[Trp(7-aza)]FT[dK](DOTA)-NH2; disulfide 3-11) | 10 to 100 nM |
| CCCC[C@H](NC(C)=O)C(=O)N[C@@H](Cc1ccc(O)cc1)C(=O)N[C@H]1CSSC[C@@H](C(=O)N[C@@H](Cc2c[nH]c3ccccc23)C(=O)N[C@@H](CC2CCCCC2)C(=O)N[C@H](C(=O)N[C@H](CCCCNC(=O)CN2CCN(CC(=O)O)CCN(CC(=O)O)CCN(CC(=O)O)CC2)C(N)=O)[C@@H](C)O)NC(=O)[C@H](Cc2ccc(O)cc2)NC(=O)[C@H](C(C)C)NC(=O)[C@H](CC(=O)O)NC(=O)[C@H](Cc2ccc(O)cc2)NC(=O)[C@H](CCCCN)NC(=O)CNC(=O)[C@H](C(C)C)NC1=O [compound 82, Ac-Nle-Y-C-V-G-K-Y-D-V-Y-C-W-ChA-Thr-dLys(DOTA)-CONH2] (Ac-[Nle]YCVGKYDVYCW[Cha]T[dK](DOTA)-NH2; disulfide 3-11) | 100 to 300 nM |
| COc1ccc(C[C@@H]2NC(=O)[C@H](C(C)C)NC(=O)[C@H](CC(=O)O)NC(=O)[C@H](Cc3ccc(O)cc3)NC(=O)[C@H](CCCCN)NC(=O)CNC(=O)[C@H](C(C)C)NC(=O)[C@@H](NC(=O)[C@H](Cc3ccc(O)cc3)NC(=O)[C@H](CCC(C)C)NC(C)=O)CSSC[C@@H](C(=O)N[C@@H](Cc3c[nH]c4ccc(F)cc34)C(=O)N[C@@H](Cc3ccccc3)C(=O)N[C@H](C(=O)N[C@H](CCCCNC(=O)CN3CCN(CC(=O)O)CCN(CC(=O)O)CCN(CC(=O)O)CC3)C(N)=O)[C@@H](C)O)NC2=O)cc1 [compound 171, Ac-hLeu-Y-C-V-G-K-Y-D-V-OMeTyr-C-5FW-F-Thr-dLys(DOTA)-CONH2] (Ac-[hLeu]YCVGKYDVY(Me)C[Trp(5-F)]FT[dK](DOTA)-NH2; disulfide 3-11) | < 1 nM |
| CCCC[C@H](NC(C)=O)C(=O)N[C@@H](Cc1ccc(O)cc1)C(=O)N[C@H]1CSSC[C@@H](C(=O)N[C@@H](Cc2c[nH]c3ccccc23)C(=O)N[C@@H](Cc2ccccc2)C(=O)N[C@H](C(=O)N[C@H](CCCCNC(=O)CN2CCN(CC(=O)O)CCN(CC(=O)O)CCN(CC(=O)O)CC2)C(=O)O)[C@@H](C)O)NC(=O)[C@H](Cc2ccc(O)cc2)NC(=O)[C@H](C(C)C)NC(=O)[C@H](CC(=O)O)NC(=O)[C@H](CCCC(=O)O)NC(=O)[C@H](CCCCN)NC(=O)CNC(=O)[C@H](C(C)C)NC1=O [compound 116, Ac-Nle-Y-C-V-G-K-HomoGlu-D-V-Y-C-W-F-Thr-dLys(DOTA)-COOH] (Ac-[Nle]YCVGK[Aad]DVYCWFT[dK](DOTA)-OH; disulfide 3-11) | 10 to 100 nM |
| CC(=O)N[C@@H](CCC(C)C)C(=O)N[C@@H](Cc1ccc(O)cc1)C(=O)N[C@H]1CSSC[C@@H](C(=O)N[C@@H](Cc2c[nH]c3ccc(F)cc23)C(=O)N[C@@H](Cc2ccccc2)C(=O)N(C)[C@@H](CO)C(N)=O)NC(=O)[C@H](Cc2ccc(O)cc2)NC(=O)[C@H](C(C)C)NC(=O)[C@H](CC(=O)O)NC(=O)[C@H](Cc2ccncc2)NC(=O)[C@H](CCCCNC(=O)CN2CCN(CC(=O)O)CCN(CC(=O)O)CCN(CC(=O)O)CC2)NC(=O)CNC(=O)[C@H](C(C)C)NC1=O [compound 228, Ac-hLeu-Y-C-V-G-Lys(DOTA)-4PyA-D-V-Y-C-5FW-F-NMeSer-CONH2] (Ac-[hLeu]YCVGK(DOTA)[4Pal]DVYC[Trp(5-F)]F[NMeS]-NH2; disulfide 3-11) | 1 to 10 nM |
| CC(=O)N[C@@H](CCC(C)C)C(=O)N[C@@H](Cc1ccc(O)cc1)C(=O)N[C@H]1CSSC[C@@H](C(=O)N[C@@H](Cc2cccc3ccccc23)C(=O)N[C@@H](Cc2ccccc2)C(=O)N2CCC[C@H]2C(=O)N[C@H](CCCCNC(=O)COCCOCCOCCOCCOCCOCCOCCOCCNC(=O)CN2CCN(CC(=O)O)CCN(CC(=O)O)CCN(CC(=O)O)CC2)C(N)=O)NC(=O)[C@H](Cc2ccc(O)cc2)NC(=O)[C@H](C(C)C)NC(=O)[C@H](CC(=O)O)NC(=O)[C@H](CC2CCOCC2)NC(=O)[C@H](CCCCN)NC(=O)CNC(=O)[C@H](C(C)(C)C)NC1=O [compound 280, Ac-hLeu-Y-C-Tbg-G-K-ThpA-D-V-Y-C-1Nal-F-Pro-dLys(PEG8-DOTA)-CONH2] (Ac-[hLeu]YC[Tle]GK[Ala(4-THP)]DVYC[1Nal]FP[dK](X7)-NH2; disulfide 3-11) | < 1 nM |

Same assay, conditions: SPR KD—37° C., 4Ig B7-H3; 37° C. flow cell temperature

| Compound | Kd |
| --- | --- |
| CC(=O)N[C@@H](CCC(C)C)C(=O)N[C@@H](Cc1ccc(O)cc1)C(=O)N[C@H]1CSSC[C@@H](C(=O)N[C@@H](Cc2c[nH]c3ccc(F)cc23)C(=O)N[C@@H](Cc2ccccc2)C(=O)N[C@H](C(N)=O)C(C)(C)O)NC(=O)[C@H](Cc2ccc(O)cc2)NC(=O)[C@H](C(C)C)NC(=O)[C@H](CC(=O)O)NC(=O)[C@H](CC2CCN(C(=O)CCOCCOCCOCCOCCNC(=O)CN3CCN(CC(=O)O)CCN(CC(=O)O)CCN(CC(=O)O)CC3)CC2)NC(=O)[C@H](CC2CCNCC2)NC(=O)CNC(=O)[C@H](C(C)(C)C)NC1=O [compound 445, Ac-hLeu-Y-C-Tbg-G-PipAla-Pip(PEG4-DOTA)Ala-D-V-Y-C-5FW-F-hydroxyVal-CONH2] (Ac-[hLeu]YC[Tle]G[Ala(piperidin-4-yl)][Ala(piperidin-4-yl)]([PEG4-DOTA])DVYC[Trp(5-F)]F[Val(3-OH)]-NH2; disulfide 3-11) | < 1 nM |
| CC(=O)N[C@@H](CCC(C)C)C(=O)N[C@@H](Cc1ccc(O)cc1)C(=O)N[C@H]1CSSC[C@@H](C(=O)N[C@@H](Cc2c[nH]c3ccc(F)cc23)C(=O)N[C@@H](Cc2ccccc2)C(=O)N[C@H](C(=O)N[C@H](CCC(=O)O)C(N)=O)C(C)(C)O)NC(=O)[C@H](Cc2ccc(O)cc2)NC(=O)[C@H](C(C)C)NC(=O)[C@H](CC(=O)O)NC(=O)[C@H](CC2CCN(C(=O)CN3CCN(CC(=O)O)CCN(CC(=O)O)CCN(CC(=O)O)CC3)CC2)NC(=O)[C@H](CC2CCNCC2)NC(=O)CNC(=O)[C@H](C(C)(C)C)NC1=O [compound 447, Ac-hLeu-Y-C-Tbg-G-PipAla-Pip(DOTA)Ala-D-V-Y-C-5FW-F-hydroxyVal-dGlu-CONH2] (Ac-[hLeu]YC[Tle]G[Ala(piperidin-4-yl)][Ala(piperidin-4-yl)](DOTA)DVYC[Trp(5-F)]F[Val(3-OH)][dE]-NH2; disulfide 3-11) | < 1 nM |
| CC(=O)N[C@@H](CCC(C)C)C(=O)N[C@@H](Cc1ccc(O)cc1)C(=O)N[C@H]1CSSC[C@@H](C(=O)N[C@@H](Cc2c[nH]c3ccc(F)cc23)C(=O)N[C@H](C(=O)N[C@H](C(=O)NCCC(=O)O)C(C)(C)O)[C@@H](C)c2ccccc2)NC(=O)[C@H](Cc2ccc(O)cc2)NC(=O)[C@H](C(C)C)NC(=O)[C@H](CC(=O)O)NC(=O)[C@H](CC2CCN(C(=O)CCOCCOCCOCCOCCNC(=O)CN3CCN(CC(=O)O)CCN(CC(=O)O)CCN(CC(=O)O)CC3)CC2)NC(=O)[C@H](CC2CCNCC2)NC(=O)CNC(=O)[C@H](C(C)(C)C)NC1=O [compound 511, Ac-hLeu-Y-C-Tbg-G-PipAla-Pip(PEG4-DOTA)Ala-D-V-Y-C-5FW-[(2S, 3S)beta-Me-Phe]-hydroxyVal-betaAla-COOH] (Ac-[hLeu]YC[Tle]G[Ala(piperidin-4-yl)][Ala(piperidin-4-yl)]([PEG4-DOTA])DVYC[Trp(5-F)][X1][Val(3-OH)][βAla]-OH; disulfide 3-11) | < 1 nM |
| CC(=O)N[C@@H](CCC(C)C)C(=O)N[C@@H](Cc1ccc(O)cc1)C(=O)N[C@H]1CSSC[C@@H](C(=O)N[C@@H](Cc2c[nH]c3ccc(F)cc23)C(=O)N[C@@H](Cc2ccccc2)C(=O)N[C@H](C(=O)N[C@H](CCC(=O)O)C(=O)O)C(C)(C)O)NC(=O)[C@H](Cc2ccc(O)cc2)NC(=O)[C@H](C(C)C)NC(=O)[C@H](CC(=O)O)NC(=O)[C@H](CC2CCN(C(=O)CCOCCOCCOCCOCCNC(=O)CN3CCN(CC(=O)O)CCN(CC(=O)O)CCN(CC(=O)O)CC3)CC2)NC(=O)[C@H](CC2CCNCC2)NC(=O)CNC(=O)[C@H](C(C)(C)C)NC1=O [compound 448, Ac-hLeu-Y-C-Tbg-G-PipAla-Pip(PEG4-DOTA)Ala-D-V-Y-C-5FW-F-hydroxyVal-dGlu-COOH] (Ac-[hLeu]YC[Tle]G[Ala(piperidin-4-yl)][Ala(piperidin-4-yl)]([PEG4-DOTA])DVYC[Trp(5-F)]F[Val(3-OH)][dE]-OH; disulfide 3-11) | < 1 nM |
| CC(=O)N[C@@H](CCC(C)C)C(=O)N[C@@H](Cc1ccc(O)cc1)C(=O)N[C@H]1CSSC[C@@H](C(=O)N[C@@H](Cc2c[nH]c3ccc(F)cc23)C(=O)N[C@@H](Cc2ccccc2)C(=O)N[C@H](C(=O)N[C@H](CCCCNC(=O)CN2CCN(CC(=O)O)CCN(CC(=O)O)CCN(CC(=O)O)CC2)C(=O)O)[C@@H](C)O)NC(=O)[C@H](Cc2ccc(O)cc2)NC(=O)[C@H](C(C)C)NC(=O)[C@H](CC(=O)O)NC(=O)[C@H](CC2CCOCC2)NC(=O)[C@H](CCCCNC(=O)CCOCCOCCOCCOCCOCCOCCOCCOCCOCCOCCOCCOCCOCCOCCOCCOCCOCCOCCOCCOCCOCCC(=O)O)NC(=O)CNC(=O)[C@H](C(C)(C)C)NC1=O [compound 341, Ac-hLeu-Y-C-Tbg-G-K(PEG21-COOH)-ThpA-D-V-Y-C-5FW-F-Thr-dLys(DOTA)-COOH] (Ac-[hLeu]YC[Tle]GK(X16)[Ala(4-THP)]DVYC[Trp(5-F)]FT[dK](DOTA)-OH; disulfide 3-11) | 10 to 100 nM |

From US20250296959A1, “B7-H3 TARGETING PEPTIDES AND CONSTRUCTS THEREOF” (Mariana Oncology Inc., priority 2024, published 2025)
